Measurements: ChEMBL document CHEMBL1201861, “Genomics of Drug Sensitity in Cancer screening data, Wellcome Trust Sanger Institute”

What was measured:
Assay in all cases: cells
ES5 = format: functional, cell-based, Homo sapiens; conditions: Homo sapiens, ES5;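 further: growth inhibition of human ES5 cells, read out by a cell viability assay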
Description: SANGER: Inhibition of human ES5 cell growth in a cell viability assay.

SW 954 = format: functional, cell-based, Homo sapiens; conditions: Homo sapiens, SW 954;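 further: growth inhibition of SW954 human cancer cells, read out as cell viability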
Description: SANGER: Inhibition of human SW954 cell growth in a cell viability assay.

CTV-1 = format: functional, cell-based, Homo sapiens; conditions: Homo sapiens, CTV-1;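 further: growth inhibition of the cell line, read out with a cell viability assay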
Description: SANGER: Inhibition of human CTV-1 cell growth in a cell viability assay.

COR-L88 = format: functional, cell-based, Homo sapiens; conditions: Homo sapiens, COR-L88;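 further: growth inhibition of COR-L88 cells, read out with a cell viability assay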
Description: SANGER: Inhibition of human COR-L88 cell growth in a cell viability assay.

NCI-H1299 = format: functional, cell-based; conditions: Homo sapiens;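 further: growth inhibition of human NCI-H1299 cells, read out by a cell viability assay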
Description: SANGER: Inhibition of human NCI-H1299 cell growth in a cell viability assay.

ALL-PO = format: functional, cell-based, Homo sapiens; conditions: Homo sapiens, ALL-PO;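 further: growth inhibition of ALL-PO cells, read out by a cell viability assay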
Description: SANGER: Inhibition of human ALL-PO cell growth in a cell viability assay.

TE-1 = format: functional, cell-based, Homo sapiens; conditions: Homo sapiens, TE-1
Description: SANGER: Inhibition of human TE-1 cell growth in a cell viability assay.

ES3 = format: functional, cell-based, Homo sapiens; conditions: Homo sapiens, ES3;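 further: growth inhibition of ES3 cells, read out with a cell viability assay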
Description: SANGER: Inhibition of human ES3 cell growth in a cell viability assay.

RH-1 = format: functional, cell-based, Homo sapiens; conditions: Homo sapiens, RH-1;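 further: growth inhibition of human RH-1 cells, read out with a cell viability assay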
Description: SANGER: Inhibition of human RH-1 cell growth in a cell viability assay.

Calu-6 = format: functional, cell-based, Homo sapiens; conditions: Homo sapiens, Calu-6;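 further: growth of human Calu-6 cells, read out by a cell viability assay, IC50 marking inhibition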
Description: SANGER: Inhibition of human Calu-6 cell growth in a cell viability assay.

NCI-H2126 = format: functional, cell-based, Homo sapiens; conditions: Homo sapiens, NCI-H2126;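 further: growth inhibition of the cancer cell line, determined with a cell viability readout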
Description: SANGER: Inhibition of human NCI-H2126 cell growth in a cell viability assay.

K562 = format: functional, cell-based, Homo sapiens; conditions: Homo sapiens, K562
Description: SANGER: Inhibition of human K-562 cell growth in a cell viability assay.

NOMO-1 = format: functional, cell-based, Homo sapiens; conditions: Homo sapiens, NOMO-1;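 further: growth inhibition of human NOMO-1 cells measured by a cell viability assay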
Description: SANGER: Inhibition of human NOMO-1 cell growth in a cell viability assay.

SNU-5 = format: functional, cell-based, Homo sapiens; conditions: Homo sapiens, SNU-5;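 further: cell viability readout used to measure growth inhibition in human NCI-SNU-5 cells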
Description: SANGER: Inhibition of human NCI-SNU-5 cell growth in a cell viability assay.

SK-MEL-2 = format: functional, cell-based, Homo sapiens; conditions: Homo sapiens, SK-MEL-2;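 further: growth inhibition of human SK-MEL-2 cells measured with a cell viability assay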
Description: SANGER: Inhibition of human SK-MEL-2 cell growth in a cell viability assay.

JVM-3 = format: functional, cell-based, Homo sapiens; conditions: Homo sapiens, JVM-3;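 further: growth inhibition of human JVM-3 cells, read out with a cell viability assay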
Description: SANGER: Inhibition of human JVM-3 cell growth in a cell viability assay.

MN-60 = format: functional, cell-based, Homo sapiens; conditions: Homo sapiens, MN-60;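 further: growth inhibition of the MN-60 cell line, determined with a cell viability assay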
Description: SANGER: Inhibition of human MN-60 cell growth in a cell viability assay.

SW684 = format: functional, cell-based, Homo sapiens; conditions: Homo sapiens, SW684; read-out: IC50;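 further: growth inhibition of human SW684 cells, measured by a cell viability assay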
Description: SANGER: Inhibition of human SW684 cell growth in a cell viability assay.

COLO-824 = format: functional, cell-based, Homo sapiens; conditions: Homo sapiens, COLO-824
Description: SANGER: Inhibition of human COLO-824 cell growth in a cell viability assay.

Becker = format: functional, cell-based, Homo sapiens; conditions: Homo sapiens, Becker;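 further: growth inhibition of Becker cells, read out with a cell viability assay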
Description: SANGER: Inhibition of human Becker cell growth in a cell viability assay.

NCI-H1648 = format: functional, cell-based, Homo sapiens; conditions: Homo sapiens, NCI-H1648;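 further: cell viability assay measuring inhibition of NCI-H1648 cell growth, from the Sanger screening data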
Description: SANGER: Inhibition of human NCI-H1648 cell growth in a cell viability assay.

COLO-320-HSR = format: functional, cell-based, Homo sapiens; conditions: Homo sapiens, COLO-320-HSR;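 further: growth inhibition of COLO-320-HSR cells, determined with a cell viability assay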
Description: SANGER: Inhibition of human COLO-320-HSR cell growth in a cell viability assay.

L-428 = format: functional, cell-based, Homo sapiens; conditions: Homo sapiens, L-428
Description: SANGER: Inhibition of human L-428 cell growth in a cell viability assay.

NKM-1 = format: functional, cell-based, Homo sapiens; conditions: Homo sapiens, NKM-1;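 further: growth inhibition of NKM-1 cells, read out with a cell viability assay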
Description: SANGER: Inhibition of human NKM-1 cell growth in a cell viability assay.

MOLT-16 = format: functional, cell-based, Homo sapiens; conditions: Homo sapiens, MOLT-16;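 further: growth inhibition of human MOLT-16 cells, read out with a cell viability assay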
Description: SANGER: Inhibition of human MOLT-16 cell growth in a cell viability assay.

NB69 = format: functional, cell-based, Homo sapiens; conditions: Homo sapiens, NB69;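 further: growth inhibition of NB69 cells, determined by a cell viability assay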
Description: SANGER: Inhibition of human NB69 cell growth in a cell viability assay.

LS-411N = format: functional, cell-based, Homo sapiens; conditions: Homo sapiens, LS-411N
RS4-11 = format: functional, cell-based, Homo sapiens; conditions: Homo sapiens, RS4-11;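 further: growth inhibition of RS4-11 cells, read out by a cell viability assay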
Description: SANGER: Inhibition of human RS4-11 cell growth in a cell viability assay.

EOL1 = format: functional, cell-based, Homo sapiens; conditions: Homo sapiens, EOL1;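 further: growth inhibition of EoL-1 cells, read out by a cell viability assay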
Description: SANGER: Inhibition of human EoL-1-cell cell growth in a cell viability assay.

DB = format: functional, cell-based, Homo sapiens; conditions: Homo sapiens, DB
Description: SANGER: Inhibition of human DB cell growth in a cell viability assay.

NB6 = format: functional, cell-based, Homo sapiens; conditions: Homo sapiens, NB6
Description: SANGER: Inhibition of human NB6 cell growth in a cell viability assay.

TE-6 = format: functional, cell-based, Homo sapiens; conditions: Homo sapiens, TE-6;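 further: growth inhibition of TE-6 cells, read out with a cell viability assay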
Description: SANGER: Inhibition of human TE-6 cell growth in a cell viability assay.

NCI-H1155 = format: functional, cell-based, Homo sapiens; conditions: Homo sapiens, NCI-H1155;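 further: cell growth inhibition measured by a viability assay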
Description: SANGER: Inhibition of human NCI-H1155 cell growth in a cell viability assay.

LB2241-RCC = format: functional, cell-based, Homo sapiens; conditions: Homo sapiens, LB2241-RCC;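 further: cell viability assay measuring how strongly the cultured human renal carcinoma line is prevented from growing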
Description: SANGER: Inhibition of human LB2241-RCC cell growth in a cell viability assay.

OMC-1 = format: functional, cell-based, Homo sapiens; conditions: Homo sapiens, OMC-1;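 further: growth inhibition of the OMC-1 cell line, measured by a cell viability assay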
Description: SANGER: Inhibition of human OMC-1 cell growth in a cell viability assay.

COLO-668 = format: functional, cell-based, Homo sapiens; conditions: Homo sapiens, COLO-668
Description: SANGER: Inhibition of human COLO-668 cell growth in a cell viability assay.

MS-1 = format: functional, cell-based, Homo sapiens; conditions: Homo sapiens, MS-1;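 further: growth inhibition of MS-1 cells, read out by cell viability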
Description: SANGER: Inhibition of human MS-1 cell growth in a cell viability assay.

HCC2218 = format: functional, cell-based, Homo sapiens; conditions: Homo sapiens, HCC2218;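 further: cell viability assay read-out, with IC50 given as the concentration that inhibits growth of the cell line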
Description: SANGER: Inhibition of human HCC2218 cell growth in a cell viability assay.

C8166 = format: functional, cell-based, Homo sapiens; conditions: Homo sapiens, C8166;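 further: growth inhibition of human C8166 cells measured by a cell viability assay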
Description: SANGER: Inhibition of human C8166 cell growth in a cell viability assay.

MZ2-MEL = format: functional, cell-based, Homo sapiens; conditions: Homo sapiens, MZ2-MEL;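 further: growth inhibition of MZ2-MEL cells read out with a cell viability assay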
Description: SANGER: Inhibition of human MZ2-MEL cell growth in a cell viability assay.

SCH = format: functional, cell-based, Homo sapiens; conditions: Homo sapiens, SCH;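 further: growth inhibition of human SCH cells, read out in a cell viability assay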
Description: SANGER: Inhibition of human SCH cell growth in a cell viability assay.

NB13 = format: functional, cell-based, Homo sapiens; conditions: Homo sapiens, NB13;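 further: cell viability readout measuring growth inhibition of human NB13 cells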
Description: SANGER: Inhibition of human NB13 cell growth in a cell viability assay.

LB771-HNC = format: functional, cell-based; conditions: Homo sapiens;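 further: growth inhibition of LB771-HNC human cells, read out with a cell viability assay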
Description: SANGER: Inhibition of human LB771-HNC cell growth in a cell viability assay.

KM-H2 = format: functional, cell-based, Homo sapiens; conditions: Homo sapiens, KM-H2;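 further: growth inhibition of KM-H2 cells, read out by a cell viability assay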
Description: SANGER: Inhibition of human KM-H2 cell growth in a cell viability assay.

BT-474 = format: functional, cell-based, Homo sapiens; conditions: Homo sapiens, BT-474
Description: SANGER: Inhibition of human BT-474 cell growth in a cell viability assay.

NCI-H1304 = format: functional, cell-based, Homo sapiens; conditions: Homo sapiens, NCI-H1304;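 further: growth inhibition of the cancer cell line, measured in a cell viability assay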
Description: SANGER: Inhibition of human NCI-H1304 cell growth in a cell viability assay.

KU812 cell line = format: functional, cell-based, Homo sapiens; conditions: Homo sapiens, KU812;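 further: growth inhibition of KU812 cells, read out with a cell viability assay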
Description: SANGER: Inhibition of human KU812 cell growth in a cell viability assay.

NCI-N87 = format: functional, cell-based; conditions: Homo sapiens;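 further: growth inhibition of human NCI-N87 cells, read out with a cell viability assay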
Description: SANGER: Inhibition of human NCI-N87 cell growth in a cell viability assay.

SNU-C2B = format: functional, cell-based; conditions: Homo sapiens;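 further: cell viability readout used to measure compound-driven suppression of SNU-C2B cell proliferation, IC50 marking half-maximal growth inhibition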
Description: SANGER: Inhibition of human SNU-C2B cell growth in a cell viability assay.

TE-11 = format: functional, cell-based; conditions: Homo sapiens;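 further: growth inhibition of human TE-11 cells, read out by a cell viability assay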
Description: SANGER: Inhibition of human TE-11 cell growth in a cell viability assay.

Nc1ccccc1NC(=O)c1ccc(CNC(=O)OCc2cccnc2)cc1 [ENTINOSTAT]
IC50 (ES5): > 5 µM
IC50 (SW 954): 0.76 µM
IC50 (CTV-1): 1.27 µM
IC50 (COR-L88): 0.23 µM
IC50 (NCI-H1299): > 5 µM
IC50 (ALL-PO): 0.0636 µM
IC50 (TE-1): 0.553 µM
IC50 (ES3): > 5 µM
IC50 (RH-1): > 5 µM
IC50 (Calu-6): > 5 µM
IC50 (NCI-H2126): > 5 µM
IC50 (K562): 1.39 µM
IC50 (NOMO-1): 0.811 µM
IC50 (SNU-5): > 5 µM
IC50 (SK-MEL-2): > 5 µM
IC50 (JVM-3): > 5 µM
IC50 (MN-60): 4.11 µM
IC50 (SW684): > 5 µM
IC50 (COLO-824): > 5 µM
IC50 (Becker): 4.37 µM
IC50 (NCI-H1648): > 5 µM
IC50 (COLO-320-HSR): 2.86 µM
IC50 (L-428): 2.49 µM
IC50 (NKM-1): 0.109 µM
IC50 (MOLT-16): 0.41 µM
IC50 (NB69): 0.598 µM
IC50 (LS-411N): 1.31 µM
IC50 (RS4-11): > 5 µM
IC50 (EOL1): > 5 µM
IC50 (DB): 1.7 µM
IC50 (NB6): 3.56 µM
IC50 (TE-6): > 5 µM
IC50 (NCI-H1155): 3.71 µM
IC50 (LB2241-RCC): 1.29 µM
IC50 (OMC-1): > 5 µM
IC50 (COLO-668): > 5 µM
IC50 (MS-1): > 5 µM
IC50 (HCC2218): 1.17 µM
IC50 (C8166): > 5 µM
IC50 (MZ2-MEL): > 5 µM
IC50 (SCH): 0.403 µM
IC50 (NB13): 0.668 µM
IC50 (LB771-HNC): > 5 µM
IC50 (KM-H2): 1.57 µM
IC50 (BT-474): 1.52 µM
IC50 (NCI-H1304): 3.01 µM
IC50 (KU812 cell line): 1.7 µM

CS(=O)(=O)N1CCN(Cc2cc3nc(-c4cccc5[nH]ncc45)nc(N4CCOCC4)c3s2)CC1 [PICTILISIB]
IC50 (ES5): 0.0502 µM
IC50 (SW 954): > 4 µM
IC50 (NCI-H1299): > 4 µM
IC50 (ALL-PO): > 4 µM
IC50 (TE-1): > 4 µM
IC50 (NCI-N87): 2.13 µM
IC50 (ES3): > 4 µM
IC50 (RH-1): > 4 µM
IC50 (Calu-6): > 4 µM
IC50 (NCI-H2126): > 4 µM
IC50 (K562): > 4 µM
IC50 (NOMO-1): > 4 µM
IC50 (SK-MEL-2): > 4 µM
IC50 (JVM-3): 1.65 µM
IC50 (MN-60): > 4 µM
IC50 (SW684): > 4 µM
IC50 (COLO-824): > 4 µM
IC50 (Becker): 3.17 µM
IC50 (NCI-H1648): 0.999 µM
IC50 (COLO-320-HSR): > 4 µM
IC50 (L-428): > 4 µM
IC50 (NKM-1): 0.593 µM
IC50 (MOLT-16): > 4 µM
IC50 (SNU-C2B): > 4 µM
IC50 (NB69): 0.245 µM
IC50 (LS-411N): > 4 µM
IC50 (RS4-11): 0.262 µM
IC50 (DB): > 4 µM
IC50 (NB6): > 4 µM
IC50 (TE-6): > 4 µM
IC50 (NCI-H1155): > 4 µM
IC50 (LB2241-RCC): 0.304 µM
IC50 (OMC-1): 0.751 µM
IC50 (COLO-668): > 4 µM
IC50 (TE-11): > 4 µM
IC50 (MS-1): > 4 µM
IC50 (C8166): > 4 µM
IC50 (MZ2-MEL): 3.66 µM
IC50 (SCH): > 4 µM
IC50 (NB13): > 4 µM
IC50 (LB771-HNC): > 4 µM
IC50 (KM-H2): > 4 µM
IC50 (BT-474): > 4 µM
IC50 (NCI-H1304): > 4 µM

CC1=C(/C=C/C(C)=C/C=C/C(C)=C/C(=O)O)C(C)(C)CCC1 [TRETINOIN]
IC50 (ES5): > 10 µM
IC50 (SW 954): > 10 µM
IC50 (CTV-1): 0.963 µM
IC50 (COR-L88): 3.86 µM
IC50 (NCI-H1299): > 10 µM
IC50 (ALL-PO): 6.87 µM
IC50 (TE-1): > 10 µM
IC50 (NCI-N87): > 10 µM
IC50 (ES3): > 10 µM
IC50 (RH-1): > 10 µM
IC50 (Calu-6): > 10 µM
IC50 (NCI-H2126): > 10 µM
IC50 (K562): > 10 µM
IC50 (NOMO-1): > 10 µM
IC50 (SNU-5): > 10 µM
IC50 (SK-MEL-2): > 10 µM
IC50 (JVM-3): > 10 µM
IC50 (MN-60): > 10 µM
IC50 (SW684): > 10 µM
IC50 (COLO-824): > 10 µM
IC50 (Becker): > 10 µM
IC50 (NCI-H1648): 9.74 µM
IC50 (COLO-320-HSR): > 10 µM
IC50 (L-428): > 10 µM
IC50 (NKM-1): 8.41 µM
IC50 (MOLT-16): > 10 µM
IC50 (SNU-C2B): > 10 µM
IC50 (NB69): > 10 µM
IC50 (LS-411N): > 10 µM
IC50 (RS4-11): 4.45 µM
IC50 (DB): 4.77 µM
IC50 (NB6): > 10 µM
IC50 (TE-6): > 10 µM
IC50 (NCI-H1155): > 10 µM
IC50 (LB2241-RCC): > 10 µM
IC50 (OMC-1): > 10 µM
IC50 (COLO-668): > 10 µM
IC50 (TE-11): > 10 µM
IC50 (MS-1): > 10 µM
IC50 (HCC2218): > 10 µM
IC50 (C8166): > 10 µM
IC50 (MZ2-MEL): > 10 µM
IC50 (SCH): > 10 µM
IC50 (NB13): 0.257 µM
IC50 (LB771-HNC): > 10 µM
IC50 (KM-H2): > 10 µM
IC50 (BT-474): > 10 µM
IC50 (NCI-H1304): > 10 µM
IC50 (KU812 cell line): 0.536 µM
